Reference: paper PMC12775434, “Ultra-large virtual screening unveils potent agonists of the neuromodulatory orphan receptor GPR139” (Nature Communications, 2025)
Several values for one entry are separate records, joined by “and”; a condition that tells them apart may be missing. Equal entries are not always repeated.

How the values were obtained:
Assay type in all cases: cell-based
GPR139 [1] = biological target: T1, GPR139 (Homo sapiens, UniProt Q6DWJ6); experiment: Ca2+ mobilization assay, agonist mode, stable GPR139-CHOk1 cell line; settings: for change in potency with larger substituents on the thiophene ring: Ca2+ mobilization; for EC50 / Emax: Supplementary Table 2, mean ± SEM; for EC50: read-out: pEC50 Ca2+ (converted); for Emax: normalized to Lundbeck Cmp 1a, read-out: Emax (%) Ca2+
T1 sequence (Q6DWJ6 1-353): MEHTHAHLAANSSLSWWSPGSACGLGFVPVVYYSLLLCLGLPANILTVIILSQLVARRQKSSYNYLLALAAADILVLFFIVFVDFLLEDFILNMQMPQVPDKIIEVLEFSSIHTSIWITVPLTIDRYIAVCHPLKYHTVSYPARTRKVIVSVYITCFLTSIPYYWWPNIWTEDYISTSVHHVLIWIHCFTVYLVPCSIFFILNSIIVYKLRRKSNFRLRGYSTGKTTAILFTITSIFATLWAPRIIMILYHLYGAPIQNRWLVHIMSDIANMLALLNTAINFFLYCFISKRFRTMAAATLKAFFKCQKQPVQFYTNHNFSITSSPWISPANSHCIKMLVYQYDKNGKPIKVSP
Method in brief: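 Agonist activity of compounds is assessed in stably transfected CHO-K1 cells using the calcium dye Fluo-4 at 37 °C in HEPES-buffered HBSS (pH 7.4). Efficacy is expressed relative to the reference agonist Lundbeck Cmp 1a, set as 100%.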

[2] = biological target: T2, human muscarinic acetylcholine M1 receptor (M1R) (Homo sapiens, UniProt P11229); experiment: Ca2+ mobilization counter-screen in M1R-CHOk1 cells; settings: individual replicates (Supplementary Figure 5)
T2 sequence (P11229 1-460): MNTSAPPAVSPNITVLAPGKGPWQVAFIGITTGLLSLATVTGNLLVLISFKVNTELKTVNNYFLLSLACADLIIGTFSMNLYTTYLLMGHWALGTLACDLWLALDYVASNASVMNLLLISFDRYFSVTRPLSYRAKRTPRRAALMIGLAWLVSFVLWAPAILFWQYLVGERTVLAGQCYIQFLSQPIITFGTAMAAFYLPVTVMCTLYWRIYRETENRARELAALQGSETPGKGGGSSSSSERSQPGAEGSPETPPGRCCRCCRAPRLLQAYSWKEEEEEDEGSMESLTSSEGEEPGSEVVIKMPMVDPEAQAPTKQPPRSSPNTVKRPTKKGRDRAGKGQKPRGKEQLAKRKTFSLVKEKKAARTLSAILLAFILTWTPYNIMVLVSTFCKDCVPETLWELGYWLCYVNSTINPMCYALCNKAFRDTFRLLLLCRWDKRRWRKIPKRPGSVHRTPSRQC
Method in brief: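 Intracellular calcium is tracked by Fluo-4 fluorescence at 37 °C in M1R-CHOk1 cells, with compounds dispensed automatically once baseline is taken. Buffer is HBSS with 20 mM HEPES, pH 7.4, plus 2.5 mM probenecid.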

GPR139 [3] = biological target: T1, GPR139; experiment: Ca2+ mobilization assay, antagonist mode (EC80 800 nM Lundbeck Cmp 1a after 20 min preincubation), GPR139-CHOk1; settings: individual replicates (Supplementary Figure 4)
Method in brief: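 Fluo-4-loaded GPR139-CHOk1 cells in HEPES-buffered HBSS (pH 7.4, 2.5 mM probenecid) given test compounds at 10 µM, then after 20 min challenged with 800 nM Lundbeck Cmp 1a (EC80). Calcium fluorescence read at 37 °C, 485/525 nm.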

[4] = Agonist mode, individual replicates (Supplementary Figure 4)
[5] = log [Compound] M = -4.5, individual replicate columns
[6] = log [Compound] M = -5.0, individual replicate columns
[7] = log [Compound] M = -5.5, individual replicate columns
[8] = log [Compound] M = -6.0, individual replicate columns
[9] = log [Compound] M = -6.5, individual replicate columns
[10] = log [Compound] M = -7.0, individual replicate columns
[11] = log [Compound] M = -7.5, individual replicate columns
[12] = log [Compound] M = -8.0, individual replicate columns
[13] = log [Compound] M = -8.5, individual replicate columns
[14] = log [Compound] M = -9.0, individual replicate columns

Structure (SMILES)	Ca2+ signal (% of Cmp 1a) (GPR139 [1]; [4])	change in potency with larger substituents on the thiophene ring (GPR139 [1])	EC50 (GPR139 [1]) [nM]	Emax (GPR139 [1]) [%]	Ca2+ signal (% of Cmp 1a) (GPR139 [1]; [5])	Ca2+ signal (% of Cmp 1a) (GPR139 [1]; [6])	Ca2+ signal (% of Cmp 1a) (GPR139 [1]; [7])	Ca2+ signal (% of Cmp 1a) (GPR139 [1]; [8])	Ca2+ signal (% of Cmp 1a) (GPR139 [1]; [9])	Ca2+ signal (% of Cmp 1a) (GPR139 [1]; [10])	Ca2+ signal (% of Cmp 1a) (GPR139 [1]; [11])	Ca2+ signal (% of Cmp 1a) (GPR139 [1]; [12])	Ca2+ signal (% of Cmp 1a) (GPR139 [1]; [13])	Ca2+ signal (% of Cmp 1a) (GPR139 [1]; [14])	Ca2+ signal (% of Carbachol) [2]	Ca2+ signal (% of Cmp 1a) (GPR139 [3])
CC(C)c1ccc(-c2nc(CC(=O)NC(C)c3ccccc3)no2)s1 (centres unmarked) [Compound 1.41, CC(C)C1=CC=C(S1)C2=NC(CC(=O)NC(C)C=3C=CC=CC3)=NO2]	66 % of Cmp 1a and 76 % of Cmp 1a and 60 % of Cmp 1a	three-fold reduction to a complete loss of activity	1580	67 ± 4	69 % of Cmp 1a and 62 % of Cmp 1a and 57 % of Cmp 1a	70 % of Cmp 1a and 71 % of Cmp 1a and 40 % of Cmp 1a	56 % of Cmp 1a and 47 % of Cmp 1a and 25 % of Cmp 1a	34 % of Cmp 1a and 27 % of Cmp 1a and 22 % of Cmp 1a	15 % of Cmp 1a and 0.333 % of Cmp 1a and 5.33 % of Cmp 1a	13 % of Cmp 1a and -9 % of Cmp 1a and 4.33 % of Cmp 1a	-1.33 % of Cmp 1a and -6.33 % of Cmp 1a and 3 % of Cmp 1a	-4.33 % of Cmp 1a and 0 % of Cmp 1a (2×)	0 % of Cmp 1a and -2.67 % of Cmp 1a and 0.333 % of Cmp 1a	-1.67 % of Cmp 1a and -4.33 % of Cmp 1a and -2.33 % of Cmp 1a	-18 % of Carbachol and 8 % of Carbachol and -8 % of Carbachol	24 % of Cmp 1a and 11 % of Cmp 1a and -0.667 % of Cmp 1a
CC(=O)c1ccc(-c2nc(CC(=O)NC(C)c3ccccc3)no2)s1 (centres unmarked) [Compound 1.28, CC(C1=CC=CC=C1)NC(CC2=NOC(C3=CC=C(C(C)=O)S3)=N2)=O]	64 % of Cmp 1a and 62 % of Cmp 1a and 50 % of Cmp 1a	three-fold reduction to a complete loss of activity	2510	66 ± 3	66 % of Cmp 1a and 68 % of Cmp 1a and 55 % of Cmp 1a and 56 % of Cmp 1a and 59 % of Cmp 1a	77 % of Cmp 1a and 66 % of Cmp 1a and 55 % of Cmp 1a and 46 % of Cmp 1a and 59 % of Cmp 1a	54 % of Cmp 1a and 43 % of Cmp 1a and 37 % of Cmp 1a and 21 % of Cmp 1a and 29 % of Cmp 1a	23 % of Cmp 1a and 21 % of Cmp 1a and 9 % of Cmp 1a and 3.16 % of Cmp 1a and 14 % of Cmp 1a	6.51 % of Cmp 1a and 1.59 % of Cmp 1a and -12 % of Cmp 1a and -2.27 % of Cmp 1a and -4.37 % of Cmp 1a	-1.28 % of Cmp 1a and 2.34 % of Cmp 1a and -6.44 % of Cmp 1a and 7 % of Cmp 1a and -2 % of Cmp 1a	0.626 % of Cmp 1a and 6.36 % of Cmp 1a and -9 % of Cmp 1a and -0.267 % of Cmp 1a and 3 % of Cmp 1a	-4.49 % of Cmp 1a and 4.31 % of Cmp 1a and -8 % of Cmp 1a and 1.18 % of Cmp 1a and -3.25 % of Cmp 1a	-6.33 % of Cmp 1a and -0.329 % of Cmp 1a and -3.24 % of Cmp 1a and -1.55 % of Cmp 1a and -1.43 % of Cmp 1a	-6.38 % of Cmp 1a and -2.27 % of Cmp 1a and -10 % of Cmp 1a and -4 % of Cmp 1a and 1.43 % of Cmp 1a	-12 % of Carbachol and -1.79 % of Carbachol and -4.4 % of Carbachol	19 % of Cmp 1a and 58 % of Cmp 1a and 22 % of Cmp 1a
